Data published in article PMC10268255 (Proceedings of the National Academy of Sciences of the …, 2023).

Tests used:
αVβ8 ectodomain = αVβ8 ectodomain (Homo sapiens, UniProt P06756+P26012); experiment: Fluorescence polarization; format: binding; details: ratio of FP KDs, αVβ8 vs αVβ6
αVβ6 ectodomain = αVβ6 ectodomain (Homo sapiens, UniProt P06756+P18564); experiment: Fluorescence polarization; format: binding; details: FP competition
integrin αVβ6 ectodomain [1] = target: integrin αVβ6 ectodomain (UniProt P06756); experiment: fluorescence polarisation
integrin αVβ8 ectodomain = integrin αVβ8 ectodomain (UniProt P06756 31-992; P26012 43-684); experiment: fluorescence polarisation
integrin αVβ6 ectodomain [2] = target: integrin αVβ6 ectodomain (UniProt P06756 31-992; P18564 22-709); experiment: fluorescence polarisation

Ac-GTSTYTSGDQKTIKSTRKKNSGK-NH2 [23-mer]
Fold lower affinity of αVβ8 compared to αVβ6 (αVβ8 ectodomain): 5,500 fold | Fold higher affinity for αVβ6 than the TGF-β2 9-mer (αVβ6 ectodomain): 20 fold

Ac-YTSGDQKTIKSTR-NH2 [13-mer]
Fold lower affinity of αVβ8 compared to αVβ6 (αVβ8 ectodomain): 8,100 fold

human proTGF-β2 C24S, N140R, D5G (shaved) (natural protein)
fold higher affinity than the TGF-β2 9-mer (integrin αVβ6 ectodomain [1]): 170 fold

B1: TGF-β2 13-mer peptide Y259TSGDQKTIKSTR271 (peptide)
peptide: Ac-YTSGDQKTIKSTR-NH2
Kd (integrin αVβ8 ectodomain): 11.4 mM

B2: TGF-β2 13-mer peptide K265A (peptide, UniProt P61812 259-271, looked up)
peptide: Ac-YTSGDQATIKSTR-NH2
fold increase in affinity over the wild-type 13-mer (integrin αVβ6 ectodomain [2]): 6.3 fold
